Test results published in patent EP1935986B1, “Luminogenic and fluorogenic compounds and methods to detect molecules or conditions” (priority 2005, dated 2006).
Values joined by “and” are separate entries in the source; they are usually repeats but may differ in a detail not shown here. Equal entries are not always repeated. Where two headings read alike, the source gives them in different places.

How the values were obtained:
[1] = molecular target: T1, QuantiLum Luciferase (Photinus pyralis, UniProt P08659); test: Emission spectra of luciferase reactions with luciferin, 5'-fluoroluciferin, 7'-fluoroluciferin; format: biochemical, firefly; conditions: reagent pH 7.4
T1 construct: purchased Promega Corporation E170
Description: All compounds except fluoroluciferin and ATP were purchased from Sigma Chemical. ATP was purchased from Amersham/Invitrogen.
Spectra were measured using 0.5s integration with 1 nm increments on a Spex Fluorolog.

[2] = molecular target: T1, QuantiLum Luciferase; test: pH titration of firefly luciferase reaction with 7'-fluoroluciferin; format: biochemical
[3] = molecular target: T1, QuantiLum Luciferase; test: ATP titration of firefly luciferase reactions with luciferin and fluoroluciferins; format: biochemical; conditions: result in words
Description: All compounds except 5'-fluoroluciferin and DTT were purchased from Sigma Chemical. To some of this reagent 5 mM ATP (Amersham/Invitrogen) was added, then serially diluted by half-logs to 0.05 mM. Reactions were initiated by adding equal volumes (0.1 ml) of reagent and DMEM medium (Gibco/Invitrogen) containing 0.1% Prionex® (Pentapharm) and 1.4 x 10-5 mg/ml QuantiLum™ Luciferase (Promega Corporation).
For ATP titrations for 7'-fluoroluciferin, reagent was created containing 200 mM HEPES, 200 mM PIPES, 1 mM CDTA, 0.5% Tergitol NP-9, 0.03% Benzyl dodecyldimethyl ammonium bromide, 30 mM thiourea, 10 mM magnesium sulfate, and 0.15 mM 7'-fluoroluciferin. This solution was separated into 3 parts and pH of the reagents were 7.4, 7.2 and 6.7. To some of this reagent, 10 mM ATP (Amersham/Invitrogen) was added. The ATP was serially diluted by quarter-logs from 10 mM to 0.32 mM.
Reactions were initiated by adding equal volumes (0.03 ml) of reagent and DMEM medium (Gibco/Invitrogen) containing 0.1% Prionex® (Pentapharm) and 1.4 x 10-5 mg/ml QuantiLum™ Luciferase (Promega Corporation).
Luminescence was measured for 0.5 seconds per well using Berthold Orion luminometer.

[4] = molecular target: T1, QuantiLum Luciferase; test: Scaffolds: light emission of luciferin derivatives with QuantiLum luciferase alone, + Co A, + DTT, + Co A and DTT; format: biochemical, firefly
[5] = test system: equine GST; test: Two-step bioluminogenic GST assay with luciferin derivative; format: biochemical; conditions: versus GST M1-1 and GST A1-1; result in words
Description: The derivative was tested in a two step format. […] At different times after the reaction was initiated, a portion was removed and mixed with a luciferase reaction mixture. Reactions in which light production increased over time indicate that GST#3 is a substrate for the GST in that reaction.
Equine GST Solution: 25 mg of equine GST (Part G 6511, Sigma Chemical Company, St. Louis, MO) was dissolved in 5 ml of 10 mM BisTris buffer, pH 6.6. […] […] Glutathione (reduced) (Part G 4251, Sigma Chemical Company) was dissolved in water to create a 100 mM solution. GST #3 was dissolved in acetonitrile to produce a 12 mM solution.

[6] = Non-enzymatic transformation of luciferin derivative by glutathione (no GST), luciferase read-out; format: biochemical; conditions: time of mixing/20/40 minutes
Description: Buffer stock solutions (1 M) of BisTris at pH 6.5, HEPES, pH 7.0, 7.5 and 8.0 and Tricine pH 8.5 were prepared by dissolving solid reagent obtained from Sigma Chemical Corporation and adjusting the pH to the desired value.
The stock of S. japonica GST used in Example 1A was diluted to 1 mg/ml with 10 mM BisTris pH 6.5.
The reactions were initiated by addition of GST #3 and mixing. […]

[7] = molecular target: T2, GST M1-1 (Homo sapiens, UniProt P09488, K173N); test: Bioluminogenic GST assay with acetyl luciferin; format: biochemical; conditions: versus GST A1-1; result in words
T2 construct: purchased Sigma

[8] = molecular target: CYP3A5 (Homo sapiens, UniProt P20815); test: Two-step luminescent P450 screen of luciferin derivatives; conditions: result in words
[9] = test system: CYP3A
[10] = molecular target: T3, CYP4F12 (Homo sapiens, UniProt Q9HCS2); conditions: previously shown (Cali, 2005b); cited from earlier work
T3 construct: purchased Discovery Labware (BD/Gentest); host or cells: insect cell expression system (membrane fractions)
T3 sequence (Q9HCS2 1-524): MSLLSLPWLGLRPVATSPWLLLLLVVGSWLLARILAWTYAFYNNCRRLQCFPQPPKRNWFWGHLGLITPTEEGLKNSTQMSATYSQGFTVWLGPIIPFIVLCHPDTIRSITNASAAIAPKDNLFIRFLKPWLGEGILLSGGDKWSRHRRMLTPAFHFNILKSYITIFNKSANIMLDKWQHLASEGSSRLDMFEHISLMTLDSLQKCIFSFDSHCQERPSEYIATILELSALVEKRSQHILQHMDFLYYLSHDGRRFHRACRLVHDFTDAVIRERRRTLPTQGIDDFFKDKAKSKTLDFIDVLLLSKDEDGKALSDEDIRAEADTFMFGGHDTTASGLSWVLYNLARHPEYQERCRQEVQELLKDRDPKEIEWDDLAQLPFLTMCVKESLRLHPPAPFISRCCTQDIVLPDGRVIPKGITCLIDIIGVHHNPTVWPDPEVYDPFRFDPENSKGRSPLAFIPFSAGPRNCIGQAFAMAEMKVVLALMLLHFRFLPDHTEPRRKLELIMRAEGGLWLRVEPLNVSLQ

[11] = molecular target: T4, CYP3A4 (Homo sapiens, UniProt P08684); test: Two-step luminescent P450 screen of luciferin derivatives; conditions: result in words
[12] = molecular target: T3, CYP4F12; test: as above; format: biochemical; conditions: result in words
Description: P450s are Supersomes™ purchased from Discovery Labware (BD/Gentest). […] HLM is human liver microsomes.
1X substrate concentration: 50 µM.

[13] = test system: luciferase; test: No-enzyme control: activity of luciferase towards the luciferin derivative (background luminescence)
[14] = molecular target: T5, CYP3A7 (Homo sapiens, UniProt P24462); test: Two-step luminescent P450 screen of luciferin derivatives; conditions: result in words
[15] = test system: equine alcohol dehydrogenase; test: Effect of inhibitors on the conversion of luciferol by equine alcohol dehydrogenase; format: biochemical; conditions: luciferol + equine ADH + NAD+ with 10 µl inhibitor solution, 37°C, 30 minutes; duplicate reactions #1, #2 (controls 1023, 1087)
Description: Trichloroethanol solution: A 0.48 ml sample of 2,2,2, trichloroethanol (Aldrich T5480-5) was dissolved in water.
Duplicate reactions were assembled (see Table 19).
Reactions were initiated by addition of 1.5 µl of luciferol solution. Upon addition of the luciferol solution, the reactions were mixed and placed at 37°C.

[16] = molecular target: T4, CYP3A4
[17] = molecular target: T5, CYP3A7
[18] = Derivative Conc. 1.07, Co A + DTT
[19] = Derivative Conc. 3.13, Co A + DTT
[20] = Derivative Conc. 6.25, Co A + DTT
[21] = Derivative Conc. 12.5, Co A + DTT
[22] = Derivative Conc. 25, Co A + DTT
[23] = Derivative Conc. 50, Co A + DTT
[24] = Derivative Conc. 100, Co A + DTT

T1 sequence (P08659 whole entry): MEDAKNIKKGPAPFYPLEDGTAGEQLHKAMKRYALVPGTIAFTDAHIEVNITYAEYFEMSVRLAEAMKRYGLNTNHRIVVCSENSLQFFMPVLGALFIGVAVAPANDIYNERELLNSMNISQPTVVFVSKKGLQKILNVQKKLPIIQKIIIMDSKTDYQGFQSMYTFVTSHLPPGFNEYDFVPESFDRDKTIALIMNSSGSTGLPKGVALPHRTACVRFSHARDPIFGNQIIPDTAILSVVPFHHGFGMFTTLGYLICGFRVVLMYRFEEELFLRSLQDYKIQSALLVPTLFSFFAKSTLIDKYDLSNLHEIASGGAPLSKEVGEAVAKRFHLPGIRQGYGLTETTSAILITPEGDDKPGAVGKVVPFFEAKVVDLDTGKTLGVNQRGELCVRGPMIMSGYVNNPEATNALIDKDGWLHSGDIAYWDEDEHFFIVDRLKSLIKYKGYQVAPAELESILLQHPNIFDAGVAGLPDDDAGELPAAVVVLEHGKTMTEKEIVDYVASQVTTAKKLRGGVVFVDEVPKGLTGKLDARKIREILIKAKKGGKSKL
T5 sequence (P24462 whole entry): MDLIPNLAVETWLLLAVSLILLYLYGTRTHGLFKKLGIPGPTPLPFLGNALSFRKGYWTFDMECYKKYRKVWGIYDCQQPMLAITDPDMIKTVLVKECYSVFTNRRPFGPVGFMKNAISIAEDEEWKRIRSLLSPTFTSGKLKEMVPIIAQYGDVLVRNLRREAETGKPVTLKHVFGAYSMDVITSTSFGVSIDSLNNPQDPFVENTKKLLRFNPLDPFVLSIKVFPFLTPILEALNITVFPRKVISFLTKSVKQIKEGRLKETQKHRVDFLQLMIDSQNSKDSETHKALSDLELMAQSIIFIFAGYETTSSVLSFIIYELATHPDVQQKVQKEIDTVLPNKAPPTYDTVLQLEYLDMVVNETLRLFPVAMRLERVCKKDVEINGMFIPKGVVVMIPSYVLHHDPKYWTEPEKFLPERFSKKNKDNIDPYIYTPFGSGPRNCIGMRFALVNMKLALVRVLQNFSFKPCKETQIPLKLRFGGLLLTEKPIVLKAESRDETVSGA
T4 sequence (P08684 2-503 limits assumed): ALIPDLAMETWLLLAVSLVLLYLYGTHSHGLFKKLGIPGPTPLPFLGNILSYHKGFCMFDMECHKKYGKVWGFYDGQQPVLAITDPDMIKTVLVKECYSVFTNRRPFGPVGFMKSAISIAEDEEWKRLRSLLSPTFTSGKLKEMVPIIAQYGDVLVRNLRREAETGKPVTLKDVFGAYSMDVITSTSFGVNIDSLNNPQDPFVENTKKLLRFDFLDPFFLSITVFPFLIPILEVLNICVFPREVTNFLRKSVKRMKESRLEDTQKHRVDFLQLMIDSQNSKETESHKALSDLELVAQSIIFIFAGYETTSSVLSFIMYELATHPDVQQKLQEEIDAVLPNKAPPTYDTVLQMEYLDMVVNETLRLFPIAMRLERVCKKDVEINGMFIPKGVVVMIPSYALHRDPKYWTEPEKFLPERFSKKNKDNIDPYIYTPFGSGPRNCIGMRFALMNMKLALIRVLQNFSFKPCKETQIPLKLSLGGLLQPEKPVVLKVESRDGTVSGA
CYP3A5, sequence (P20815 whole entry): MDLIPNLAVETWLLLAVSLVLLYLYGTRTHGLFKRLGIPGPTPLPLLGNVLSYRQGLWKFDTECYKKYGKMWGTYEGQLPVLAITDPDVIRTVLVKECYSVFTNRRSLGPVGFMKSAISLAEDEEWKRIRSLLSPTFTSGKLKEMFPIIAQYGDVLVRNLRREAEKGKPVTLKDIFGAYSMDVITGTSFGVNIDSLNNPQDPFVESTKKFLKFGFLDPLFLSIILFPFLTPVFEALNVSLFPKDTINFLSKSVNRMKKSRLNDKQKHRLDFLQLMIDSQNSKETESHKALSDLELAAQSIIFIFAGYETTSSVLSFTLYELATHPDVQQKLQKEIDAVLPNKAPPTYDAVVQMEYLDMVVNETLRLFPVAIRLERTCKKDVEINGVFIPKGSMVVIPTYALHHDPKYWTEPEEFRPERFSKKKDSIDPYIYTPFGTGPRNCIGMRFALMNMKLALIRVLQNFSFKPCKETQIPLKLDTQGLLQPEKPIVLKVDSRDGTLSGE
T2 sequence (P09488 whole entry K173N): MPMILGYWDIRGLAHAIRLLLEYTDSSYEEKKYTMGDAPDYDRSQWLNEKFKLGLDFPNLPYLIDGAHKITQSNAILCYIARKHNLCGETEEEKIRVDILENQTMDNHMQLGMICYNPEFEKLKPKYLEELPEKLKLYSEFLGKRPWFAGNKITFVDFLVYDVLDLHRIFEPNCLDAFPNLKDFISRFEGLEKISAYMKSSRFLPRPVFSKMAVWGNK

Compound: O=C(O)[C@H]1CSC(c2nc3ccc(O)c(F)c3s2)=N1 [7'-fluoroluciferin]
- λmax of luminescence, red-shifted from regular luciferin [1]: approximately 21 nm
- pH optima for the firefly luciferase reaction [2]: ~7.5 pH
- ATP requirement of the luciferase reaction compared with luciferin [3]: requirement for ATP is much higher

Compound: O=C(O)[C@H]1CSC(c2ccc3cc(Oc4ccc(C(F)(F)F)cc4[N+](=O)[O-])ccc3n2)=N1 [GST #3, 6-(2-nitro-4-trifluoromethyl-phenoxy)quinolinyl-luciferin]
- light emission values ([4]; Derivative Conc. 1.07, Alone): 3232
- light emission values ([4]; Derivative Conc. 1.07, Co A): 3081
- light emission values [4, 18]: 6964
- light emission values ([4]; Derivative Conc. 1.07, DTT): 5953
- light emission values ([4]; Derivative Conc. 3.13, Alone): 4913
- light emission values ([4]; Derivative Conc. 3.13, Co A): 4832
- light emission values [4, 19]: 8826
- light emission values ([4]; Derivative Conc. 3.13, DTT): 9106
- light emission values ([4]; Derivative Conc. 6.25, Alone): 7682
- light emission values ([4]; Derivative Conc. 6.25, Co A): 7149
- light emission values [4, 20]: 10423
- light emission values ([4]; Derivative Conc. 6.25, DTT): 11164
- light emission values ([4]; Derivative Conc. 12.5, Alone): 11752
- light emission values ([4]; Derivative Conc. 12.5, Co A): 10674
- light emission values [4, 21]: 14298
- light emission values ([4]; Derivative Conc. 12.5, DTT): 16587
- light emission values ([4]; Derivative Conc. 25, Alone): 15957
- light emission values ([4]; Derivative Conc. 25, Co A): 14791
- light emission values [4, 22]: 18145
- light emission values ([4]; Derivative Conc. 25, DTT): 21256
- light emission values ([4]; Derivative Conc. 50, Alone): 17409
- light emission values ([4]; Derivative Conc. 50, Co A): 15440
- light emission values [4, 23]: 20009
- light emission values ([4]; Derivative Conc. 50, DTT): 22888
- light emission values ([4]; Derivative Conc. 100, Alone): 16388
- light emission values ([4]; Derivative Conc. 100, Co A): 18343
- light emission values [4, 24]: 19129
- light emission values ([4]; Derivative Conc. 100, DTT): 21472
- substrate preference among GSTs in a light generating reaction [5]: better substrate for equine GST
- Light Output ([6]; Table 4 reaction 2: BisTris pH 6.5, 5 µl 100 mM glutathione, no GST, 20 minutes post mixing): 1.287
- Light Output ([6]; Table 4 reaction 2: BisTris pH 6.5, 5 µl 100 mM glutathione, no GST, 40 minutes post mixing): 1.761
- Light Output ([6]; Table 4 reaction 2: BisTris pH 6.5, 5 µl 100 mM glutathione, no GST, at time of mixing): 1.13
- Light Output ([6]; Table 4 reaction 4: HEPES pH 7.0, glutathione, 20 minutes post mixing): 1.178
- Light Output ([6]; Table 4 reaction 4: HEPES pH 7.0, glutathione, 40 minutes post mixing): 2.2
- Light Output ([6]; Table 4 reaction 4: HEPES pH 7.0, glutathione, at time of mixing): 1.156

Compound: COC(=O)[C@H]1CSC(c2ccc3cc(Oc4ccc(C(F)(F)F)cc4[N+](=O)[O-])ccc3n2)=N1 [GST-4, Methyl 6-(2-nitro-4-trifluoromethyl-phenoxy)quinolinyl-luciferin ester]
- substrate preference among GSTs in a light generating reaction [7]: better substrate for GST M1-1

Compound: O=C(O)[C@H]1CSC(c2nc3ccc(OCc4ccc(C(F)(F)F)cc4)cc3s2)=N1 [Luciferin-6-trifluoromethylbenzylether]
- P450 activity / selectivity with the derivative as substrate [8]: enhanced selectivity

Compound: CC(=O)N1CCN(c2ccc(OCC3COC(Cn4ccnc4)(c4ccc(Cl)cc4Cl)O3)cc2)CC1 (stereo not drawn) [ketoconazole]
- CYP3A-dependent luminescence in human hepatocytes [9]: inhibition by ketoconazole of both basal and rifampicin-induced activity

Compound: O=C(O)[C@H]1CSC(c2nc3ccc(OCc4ccccc4)cc3s2)=N1 [luciferin 6-benzyl ether, reference compound]
- reaction with CYP4F12 [10]: react also with CYP4F12
- light emission values ([4]; Derivative Conc. 1.07, Alone): 29234
- light emission values ([4]; Derivative Conc. 1.07, Co A): 50144
- light emission values [4, 18]: 51799
- light emission values ([4]; Derivative Conc. 1.07, DTT): 57066
- light emission values ([4]; Derivative Conc. 3.13, Alone): 32994
- light emission values ([4]; Derivative Conc. 3.13, Co A): 55778
- light emission values [4, 19]: 80626
- light emission values ([4]; Derivative Conc. 3.13, DTT): 86445
- light emission values ([4]; Derivative Conc. 6.25, Alone): 38838
- light emission values ([4]; Derivative Conc. 6.25, Co A): 58288
- light emission values [4, 20]: 105912
- light emission values ([4]; Derivative Conc. 6.25, DTT): 100044
- light emission values ([4]; Derivative Conc. 12.5, Alone): 40486
- light emission values ([4]; Derivative Conc. 12.5, Co A): 57996
- light emission values [4, 21]: 97371
- light emission values ([4]; Derivative Conc. 12.5, DTT): 94861
- light emission values ([4]; Derivative Conc. 25, Alone): 40093
- light emission values ([4]; Derivative Conc. 25, Co A): 53097
- light emission values [4, 22]: 90306
- light emission values ([4]; Derivative Conc. 25, DTT): 84034
- light emission values ([4]; Derivative Conc. 50, Alone): 30609
- light emission values ([4]; Derivative Conc. 50, Co A): 38349
- light emission values [4, 23]: 98716
- light emission values ([4]; Derivative Conc. 50, DTT): 80001
- light emission values ([4]; Derivative Conc. 100, Alone): 31581
- light emission values ([4]; Derivative Conc. 100, Co A): 33199
- light emission values [4, 24]: 64460
- light emission values ([4]; Derivative Conc. 100, DTT): 54592
- competition at the substrate binding sites on CYP3A4 [11]: only competitive at 1 site
- P450 activity / cross reactivity with the derivative as substrate [12]: cross reacted
- background luminescence ([13]; on a BMG luminometer, minus P450): about 5000 RLU
- background luminescence (minus P450 control samples) ([13]; result in words): high background luminescence
- P450 activity / selectivity with the derivative as substrate [14]: cross reacted significantly

Compound: OCC(Cl)(Cl)Cl [trichloroethanol, 2,2,2, trichloroethanol]
- Relative Light Units [15]: 524.8 and 342.1

Compound: quinolylluciferin 6-benzyl ether
- P450 activity / selectivity with the derivative as substrate [16]: to a lesser degree a substrate
- P450 activity / selectivity with the derivative as substrate [17]: preferred substrate
